Source: patent US20240132484A1, “BROAD SPECTRUM ANTIVIRAL COMPOUNDS TARGETING THE SKI COMPLEX” (priority 2020, published 2024)
Several values for one entry are separate records, joined by “and”; a condition that tells them apart may be missing. Equal entries are not always repeated. Where two headings read alike, the source gives them in different places.

Legend:
SARS2 = format: cell-based, SARS-CoV-2; settings: for Percentage Inhibition Average 1 μM / Screening data (Relative infection to DMSO controls) Average 1 μM: SARS2, 1 μM; for Screening data (Relative infection to DMSO controls) Average 1 μM / Screening data (Relative infection to DMSO controls) Average 5 μM / Screening data (Relative infection to DMSO controls) Average 10 μM / Screening data (Relative infection to DMSO controls) Average 25 μM / Screening data (Relative infection to DMSO controls) Average 50 μM / Average (relative infection to DMSO over the 5 tested concentrations): 100=DMSO control; for Percentage Inhibition Average 5 μM / Screening data (Relative infection to DMSO controls) Average 5 μM: SARS2, 5 μM; for Percentage Inhibition Average 10 μM / Screening data (Relative infection to DMSO controls) Average 10 μM: SARS2, 10 μM; for Percentage Inhibition Average 25 μM / Screening data (Relative infection to DMSO controls) Average 25 μM: SARS2, 25 μM; for Percentage Inhibition Average 50 μM / Screening data (Relative infection to DMSO controls) Average 50 μM: SARS2, 50 μM; for Average (relative infection to DMSO over the 5 tested concentrations): SARS2, average over 1 to 50 uM
cells (nuclei count) = settings: for Relative cell count to DMSO controls, Average 1 μM / Relative cell count to DMSO controls, Average 5 μM / Relative cell count to DMSO controls, Average 10 μM / Relative cell count to DMSO controls, Average 25 μM / Relative cell count to DMSO controls, Average 50 μM: toxicity data, 100=DMSO control; for Relative cell count to DMSO controls, Average (for correlation analysis): average value over the 5 tested concentrations (1 to 50 uM)

Row | Compound | Percentage Inhibition Average 1 μM (SARS2) [%] | Screening data (Relative infection to DMSO controls) Average 1 μM (SARS2) | Percentage Inhibition Average 5 μM (SARS2) [%] | Screening data (Relative infection to DMSO controls) Average 5 μM (SARS2) | Percentage Inhibition Average 10 μM (SARS2) [%] | Screening data (Relative infection to DMSO controls) Average 10 μM (SARS2) | Percentage Inhibition Average 25 μM (SARS2) [%] | Screening data (Relative infection to DMSO controls) Average 25 μM (SARS2) | Percentage Inhibition Average 50 μM (SARS2) [%] | Screening data (Relative infection to DMSO controls) Average 50 μM (SARS2) | Average (relative infection to DMSO over the 5 tested concentrations) (SARS2) | Relative cell count to DMSO controls, Average 1 μM (cells (nuclei count)) | Relative cell count to DMSO controls, Average 5 μM (cells (nuclei count)) | Relative cell count to DMSO controls, Average 10 μM (cells (nuclei count)) | Relative cell count to DMSO controls, Average 25 μM (cells (nuclei count)) | Relative cell count to DMSO controls, Average 50 μM (cells (nuclei count)) | Relative cell count to DMSO controls, Average (for correlation analysis) (cells (nuclei count)) | further results
1 | CN(C)CCN(Cc1ccccc1)Cc1cc(C#CCO)cs1 [SILCS5] | −11.97 | 111.97 | −4.84 | 104.84 | 1.42 | 98.58 | 18.72 | 81.28 | 24.37 | 75.63 | 94.46 | 113.75 | 108.79 | 102.76 | 105.3 | 75.59 | 101.24 | Percentage Infection Relative to DMSO Control, Average, Mean (SARS2): 75.63% and 81.28% and 98.58% and 104.84% and 111.97%; Toxicity Data, Average, Mean (relative to DMSO control) (cells (nuclei count); Average of Exp 1-3, 1 uM): 113.75%; Toxicity Data, Average, Mean (relative to DMSO control) (cells (nuclei count); Average of Exp 1-3, 5 uM): 108.79%; Toxicity Data, Average, Mean (relative to DMSO control) (cells (nuclei count); Average of Exp 1-3, 10 uM): 102.76%; Toxicity Data, Average, Mean (relative to DMSO control) (cells (nuclei count); Average of Exp 1-3, 25 uM): 105.30%; Toxicity Data, Average, Mean (relative to DMSO control) (cells (nuclei count); Average of Exp 1-3, 50 uM): 75.59%
2 | COc1ccc(-c2[nH]ncc2C(=O)NC2CCCCCC2)cc1OC [SILCS60] | 20.62 | 79.38 | 26.35 | 73.65 | 26.47 | 73.53 | 1.46 | 98.54 | −22.52 | 122.52 | 89.52 | 111.59 | 110.17 | 109.31 | 96.61 | 85.19 | 102.57 | 
